In PMC7457137, “An Integrated Pharmacokinetic Study of an Acanthopanax senticosus Extract Preparation by Combination of Virtual Screening, Systems Pharmacology, and Multi-Component Pharmacokinetics in Rats” (Frontiers in Pharmacology, 2020):
Read-outs that look alike come from different tables or passages of the source.

Columns and labels:
[1] = Multi-component PK in rats after i.v. administration of ASEP; assay type: in vivo, Sprague-Dawley rats; details: for ingredient concentration in rat plasma: PK time points 2.5, 5, 10, 15 and 20 min after single i.v. 3.52 ml/kg of 5 times concentrated ASEP, preliminary examination; for AUC0-∞ / AUC(0-t) / Cl / MRT0-∞ / Vd / t 1/2 / MRT0-t / AUC(0-inf) / clearance / MRT last / MRT inf / half-life: rat plasma, mean ± SD, n=3; for AUC(0-inf): read-out: AUC0-∞; for clearance: read-out: Cl (converted); for MRT last: read-out: MRT0-t; for MRT inf: read-out: MRT0-∞; for half-life: read-out: t 1/2 (converted)
Protocol: The animal experiments were conducted in line with the Guide for the Care and Use of Laboratory Animals (published by the USA National Institutes of Health, NIH Publication no. 85-23, revised 1996), which were approved by the Animal Care and Use Committee of the College of Animal Science (College of Bee Science), Fujian Agriculture and Forestry University (Approval Number: […]2019004). […] All rats were acclimated to the facilities and environment for 7 days before the experiments. […] The gradient elution was carried out by the mobile phase water with 0.1% formic acid (A) and methanol (B). […] The column temperature and flow rate were at 35 °C and 0.5 ml/min, resepectively. 5 μl sample solution was injected for the HPLC-MS analysis. The electrospray ionization (ESI) source conditions were as follows: block heating temperature was kept at 400 °C; desolvation line temperature was set at 250 °C; dry gas (nitrogen) flow rate was kept at 15 L/min; and auxiliary gas (nitrogen) flow rate was 3 L/min. […] The plasma samples were separated by centrifugation, followed by storing at -20 °C before analysis. […] A DAS 3.0 software (Chinese Pharmacologic Society, Beijing, China) was used to calculate the noncompartmental PK parameters. All the results were presented as mean ± SD, and statistics analysis was done with a single-tailed Student's t test in the work.

[2] = Stability of the compounds in rat plasma (LC-MS validation); assay type: in vitro ADME
Source text: According to the “Guidelines for non-clinical pharmacokinetics of drugs” issued by Centre for Drug Evaluation, National Medical Products Administration, China ([Guidelines for non-clinical pharmacokinetics of drugs, 2014]), the LC-MS method was validated by linearity, limits of detection (LOD), limits of quantification (LOQ), precision, accuracy, extraction recovery, matrix effect and stability of the 6 compounds in rat plasma. In brief, blank rat plasma was obtained from the other six rats. The standard mixture solution containing the 6 compounds (with the concentration of 1 mg/ml for each) was diluted with […] to prepare a series of working solution containing the 6 compounds (concentration level: 20, 50, 100, 250, 500 ng/ml and 1, 2.5, 5, 10, 25, 50, 100, 125 150, 200 μg/ml) and IS (2.5μg/ml). For calibration curve, 10 μl of the series of working solution containing the IS (2.5μg/ml) was added into 100 μl of blank plasma. Finally, 15 data points (2, 5, 10, 25, 50, 100, 250, 500 ng/ml and 1, 2.5, 5, 10, 12.5 15, 20 μg/ml) were used in the calibration curve linearity. Calibration curves were plotted by weighted linear regression of the peak area ratio of analyte to the IS against the related nominal concentration of the analyte. LOD and LOQ were defined as the detectable concentration at which the ratio of signal to noise was about 3 and 10, respectively ([Huang et al., 2019]). […] The extraction recovery and matrix effect were also assessed at the above-mentioned three concentration levels for the 6 ingredients in the spiked plasma samples ([Huang et al., 2019]). Stability was examined under the condition of setting un-treated plasma samples at ambient temperature for 6 h, and extracted plasma samples in auto-sampler for 10 h, as well as setting plasma samples for three freeze-thaw cycles and at −80°C for 15 days ([Guidelines for non-clinical pharmacokinetics of drugs, 2014]).

zebrafish model = test system: zebrafish model; design: method as in Lin et al., 2017; Hu et al., 2018; details: ref Lin et al., 2017, Hu et al., 2018; cited from earlier work
[3] = test system: human umbilical vein endothelial cells; design: method as in Lin et al., 2017; Hu et al., 2018; details: ref Lin et al., 2017, Hu et al., 2018; cited from earlier work
[4] = rat, in vivo; cited from earlier work
[5] = High group: single i.v. 3.52 ml/kg of 5 times concentrated ASEP
[6] = Low group: single i.v. 1.76 ml/kg of 5 times concentrated ASEP
[7] = extracted plasma samples, 10h in auto-sampler vials, high spiked level (HQC, 8000-16000 ng/mL)
[8] = extracted plasma samples, 10h in auto-sampler vials, low spiked level (LQC, 5-30 ng/mL)
[9] = extracted plasma samples, 10h in auto-sampler vials, middle spiked level (MQC, 400-1600 ng/mL)
[10] = rat plasma, 6h at room temperature, high spiked level (HQC, 8000-16000 ng/mL)
[11] = rat plasma, 6h at room temperature, low spiked level (LQC, 5-30 ng/mL)
[12] = rat plasma, 6h at room temperature, middle spiked level (MQC, 400-1600 ng/mL)
[13] = rat plasma, freeze-thaw stability (three cycles), high spiked level (HQC, 8000-16000 ng/mL)
[14] = rat plasma, freeze-thaw stability (three cycles), low spiked level (LQC, 5-30 ng/mL)
[15] = rat plasma, freeze-thaw stability (three cycles), middle spiked level (MQC, 400-1600 ng/mL)
[16] = rat plasma, long-term stability (-80℃,15 days), high spiked level (HQC, 8000-16000 ng/mL)
[17] = rat plasma, long-term stability (-80℃,15 days), low spiked level (LQC, 5-30 ng/mL)
[18] = rat plasma, long-term stability (-80℃,15 days), middle spiked level (MQC, 400-1600 ng/mL)
[19] = male, Sprague-Dawley, rat, plasma, iv, 1.76 ml/kg, Low group: single i.v. 1.76 ml/kg of 5 times concentrated ASEP
[20] = male, Sprague-Dawley, rat, plasma, iv, 3.52 ml/kg, High group: single i.v. 3.52 ml/kg of 5 times concentrated ASEP

## O=C(/C=C/c1ccc(O)c(O)c1)OC1[C@H](O)CC(O)(C(=O)O)C[C@H]1O (stereo partly drawn) [4-CQA]
[1]
  ingredient concentration in rat plasma: > 0.5 ng/mL
[1]; [5]
  AUC0-∞: 3,161.48 ± 69.18 h·ng/ml
  AUC(0-t): 3,156.93 ± 68.74 h·ng/ml
  Cl: 0.80 ± 0.02 L/h
  MRT0-∞: 25.8 ± 0.6 min
  Vd: 0.76 ± 0.02 L
  t 1/2: 39.6 ± 0.6 min
[1]; [6]
  AUC0-∞: 1,750.59 ± 64.24 h·ng/ml
  AUC(0-t): 1,747.89 ± 64.52 h·ng/ml
  Cl: 0.73 ± 0.03 L/h
  MRT0-t: 21.6 ± 0 min
  MRT0-∞: 22.2 ± 0 min
  Vd: 0.98 ± 0.11 L
  t 1/2: 55.8 ± 4.8 min
[2]; [7]
  Stability, RE: -6.85%
[2]; [8]
  Stability, RE: -16.89%
[2]; [9]
  Stability, RE: 14.39%
[2]; [10]
  Stability, RE: -7.63%
[2]; [11]
  Stability, RE: -6.42%
[2]; [12]
  Stability, RE: 9.60%
[2]; [13]
  Stability, RE: -3.17%
[2]; [14]
  Stability, RE: 19.90%
[2]; [15]
  Stability, RE: -0.64%
[2]; [16]
  Stability, RE: -1.64%
[2]; [17]
  Stability, RE: 17.58%
[2]; [18]
  Stability, RE: 14.43%

## O=C(/C=C/c1ccc(O)c(O)c1)O[C@@H]1C[C@@](O)(C(=O)O)C[C@@H](O)[C@@H]1O [5-CQA, 5-caffeoylquinic acid]
[1]; [5]
  AUC0-∞: 4,013.66 ± 42.67 h·ng/ml
  AUC(0-t): 4,006.71 ± 42.76 h·ng/ml
  Cl: 0.86 ± 0.01 L/h
  MRT0-t: 19.8 ± 0 min
  MRT0-∞: 21 ± 0 min
[1]; [6]
  AUC0-∞: 2,249.80 ± 109.69 h·ng/ml
  AUC(0-t): 2,244.68 ± 109.65 h·ng/ml
  Cl: 0.77 ± 0.04 L/h
  MRT0-t: 26.4 ± 1.2 min
  MRT0-∞: 27.6 ± 1.2 min

## O=C(O)c1ccc(O)c(O)c1 [PCA, protocatechuic acid]
[1]
  ingredient concentration in rat plasma: > 0.5 ng/mL
[1]; male, Sprague-Dawley, rat, plasma, iv, 1.76 ml/kg, Low group: single i.v. 1.76 ml/kg of 5 times concentrated ASEP, read-out: AUC0-t
  AUC(0-t): 202 ± 4.82 ng·h/mL
[1]; [19]
  AUC(0-inf): 204 ± 5.08 ng·h/mL
  clearance: 96 mL/min
  MRT last: 15 ± 0.6 min
  MRT inf: 16.8 ± 1.2 min
  half-life: 21 ± 0.6 min
[1]; male, Sprague-Dawley, rat, plasma, iv, 1.76 ml/kg, Low group: single i.v. 1.76 ml/kg of 5 times concentrated ASEP, read-out: Vd
  Vd: 2.91 ± 0.07 L
[1]; male, Sprague-Dawley, rat, plasma, iv, 3.52 ml/kg, High group: single i.v. 3.52 ml/kg of 5 times concentrated ASEP, read-out: AUC0-t
  AUC(0-t): 308 ± 14.2 ng·h/mL
[1]; [20]
  AUC(0-inf): 310 ± 14.1 ng·h/mL
  clearance: 126 mL/min
  MRT last: 18 ± 0.6 min
  MRT inf: 19.2 ± 0.6 min
  half-life: 24 min
[1]; male, Sprague-Dawley, rat, plasma, iv, 3.52 ml/kg, High group: single i.v. 3.52 ml/kg of 5 times concentrated ASEP, read-out: Vd
  Vd: 4.39 ± 0.22 L
Zebrafish model
  effect on VEGF-induced angiogenesis: significant inhibitory effects
[2]; [7]
  Stability, RE: -5.63%
[2]; [8]
  Stability, RE: -2.62%
[2]; [9]
  Stability, RE: -6.89%
[2]; [10]
  Stability, RE: 0.16%
[2]; [11]
  Stability, RE: -6.60%
[2]; [12]
  Stability, RE: -4.01%
[2]; [13]
  Stability, RE: -0.14%
[2]; [14]
  Stability, RE: -0.31%
[2]; [15]
  Stability, RE: 0.85%
[2]; [16]
  Stability, RE: -10.60%
[2]; [17]
  Stability, RE: -9.72%
[2]; [18]
  Stability, RE: -3.16%
[3]
  effect on VEGF-induced angiogenesis: significant inhibitory effects

## COc1cc2ccc(=O)oc2c(OC)c1O [isofraxidin]
[4]
  elimination in cerebral ischemia-reperfusion rats compared with the normal group: changed
